Patent US11352400B2, “PI3K gamma inhibitor peptide for treatment of respiratory system diseases” (Kither Biotech S.r.I., priority 2014, dated 2022)

Tests used:
[1] = biological target: T1, association of PI3Kγ with PKA RII (Homo sapiens, UniProt P13861); conditions: in vitro, previous study (1); cited from earlier work
T1 construct: the regulatory subunit of PKA (PKA RII) was immunoprecipitated by incubating the protein extract; expressed in transfected cells; host or cells: HEK293 (ATCC CRL-1573) transfected with pcDNA3.1-PI3Kγ; PKA RII endogenous

[2] = tested on: PI3Kγ-bound phosphodiesterase 3B; conditions: in vitro, previous study (1); cited from earlier work
hBSMCs = experiment: Measurements of calcium transients (Indo-1) in hBSMCs; type: cell-based, human; conditions: 50 μM, 30 minutes, 40 mM KCl depolarizing solution
Protocol: Cells were washed with a Tyrode solution containing (in mmol/L): 5 HEPES, 154 NaCl, 4 KCl, 2 CaCl2, 1 MgCl2, 5.5 D-glucose, at pH 7.35 and placed on an inverted microscope. Cells were kept in Tyrode solution and treated with a KCl depolarizing solution containing (in mmol/L): 5 HEPES, 118 NaCl, 40 KCl, 2 CaCl2, 1 MgCl2, 5.5 D-glucose, at pH 7.35. Calcium transients were analyzed as the ratio of fluorescence signals measured at 400 nm and 490 nm following excitation of Indo-1-AM-loaded cells at 350 nm. Experiments were recorded and analyzed with Igor® Software, using the functions added by Jason Rothman (Neuromatic, www.thinkrandom.com).

β2-AR/cAMP signaling = experiment: FRET imaging of cAMP (ICUE3 probe) in hBSMCs after β2-AR stimulation; type: cell-based, human; conditions: hBSMCs pre-treated 50 μM, 30 minutes; ISO 100 nM + CGP-20712A 100 nM
Protocol: Human bronchial smooth muscle cells (hBSMCs) were transfected with a plasmid encoding the FRET probe for cAMP, ICUE3 (described in the U.S. Pat. No. 8,236,523 B2) (2), by electroporation with a Nucleofector device (AMAXA, Gaithersburg, Md.), according to the manufacturer's protocol. Briefly, 1×10^6 cells were re-suspended in 100 μL of nucleofection solution (VPI-1004, AMAXA, Gaithersburg, Md.), mixed with 1 μg of pcDNA3-ICUE3 (described in U.S. Pat. No. 8,236,523 B2), and subjected to electroporation in a nucleofection apparatus of Amaxa Biosystems (Program A-033). Live cell imaging experiments were performed at 24 hours after transfection.
Measurements of cAMP levels were performed on human bronchial smooth muscle cells (hBSMCs) that express the FRET probe ICUE3, as described previously (2). Briefly, cells were maintained in a K^+-Ringer solution containing (in mmol/L) 121.6 NaCl, 5.4 KCl, 1.8 MgCl2, 1.8 CaCl2, 4 NaHCO3, 0.8 NaH2PO4, 5 D-glucose, 5 sodium pyruvate, 10 HEPES, at pH 7.4. […] FRET efficiency was calculated using the “Method 3” provided by the Leica wizard application for FRET imaging and sensitized emission, according to which: EA(i)=B/A, where EA(i) is the apparent FRET efficiency; A and B are the intensities of the CFP channel and FRET, respectively. […]

ΔF508-CFTR = experiment: Chloride currents in Ussing chamber, CuFi-1 cells; type: cell-based, human; conditions: CuFi-1 cells corrected with VX-809 (20 μM, 24 hours); P1 10 μM, VX-770 10 μM
Protocol: (§1) Human airway epithelial cell lines expressing a wild-type CFTR (NuLi-1) or with the ΔF508 mutation (CuFi-1) were purchased from ATCC (NuLi-1 product code: ATCC® CRL-4011™; CuFi-1 product code: ATCC® CRL-4013™). Cells were cultured in Dulbecco's Modified Eagle Medium (DMEM, Gibco, Carlsbad, Calif.) supplemented with 10% fetal bovine serum (FBS), 30 μg/mL of penicillin, 100 μg/mL of streptomycin and 300 μg/mL hygromycin B (Gibco, Carlsbad, Calif.).
(§2) To measure chloride currents in normal and ΔF508 primary human bronchial epithelial cells, cells were cultured on 1.12 cm^2 Snapwell inserts. Filters were mounted in Ussing chambers, and a chloride gradient was applied by incubating the cells in a basolateral high-chloride buffer containing (in mmol/L): 140 NaCl, 5 KCl, 0.36 K2HPO4, 0.44 KH2PO4, 1.3 CaCl2, 0.5 MgCl2, 4.2 NaHCO3, 10 HEPES, and 10 glucose, at pH 7.4 and an apical low-chloride buffer containing (in mmol/L): 133.3 Na-gluconate, 5 K-gluconate, 2.5 NaCl, 0.36 K2HPO4, 0.44 KH2PO4, 5.7 CaCl2, 0.5 MgCl2, 4.2 NaHCO3, 10 HEPES, and 10 mannitol, at pH 7.4. Buffers were aerated with a mixture of 95% O2 and 5% CO2 and the temperature was maintained at 37° C. during the experiment. […] After a stabilization period of 30 minutes, drugs were added at specific times, while the current was continuously recorded.

wild-type CFTR = experiment: Chloride currents in Ussing chamber, NuLi-1 cells; type: cell-based, human; conditions: peptide 10-30 μM, P1 30 μM
Protocol: as §1, §2

T1 sequence (P13861 whole entry): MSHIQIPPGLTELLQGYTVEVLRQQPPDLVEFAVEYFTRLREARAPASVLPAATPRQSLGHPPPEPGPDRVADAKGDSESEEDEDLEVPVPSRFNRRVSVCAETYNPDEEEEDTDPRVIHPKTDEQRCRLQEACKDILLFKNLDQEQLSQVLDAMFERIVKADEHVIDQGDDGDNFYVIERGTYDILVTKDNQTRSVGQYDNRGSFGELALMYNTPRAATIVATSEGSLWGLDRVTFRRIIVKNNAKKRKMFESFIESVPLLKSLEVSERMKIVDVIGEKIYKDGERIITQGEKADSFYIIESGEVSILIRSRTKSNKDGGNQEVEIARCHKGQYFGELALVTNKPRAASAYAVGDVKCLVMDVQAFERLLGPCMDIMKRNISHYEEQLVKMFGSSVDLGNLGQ

Sequence | PKA anchoring (PI3Kγ-PKA interaction) [1] | activity of PI3Kγ-bound phosphodiesterase 3B [2] | influx of Ca2+ induced by KCl (through VOCCs) (hBSMCs) | increase of cAMP accumulation following stimulation of β2-ARs (β2-AR/cAMP signaling) | CFTR activity in the presence of VX-770 (ΔF508-CFTR) | CFTR-dependent Cl− currents (wild-type CFTR)
KATHRSPGQIHLVQRHPPSEESQAF (homo sapiens) [SEQ ID No.: 1] | inhibits | decreases |  |  |  | 
RQIKIWFQNRRMKWKK (Antennapedia penetratin 1) [P1 control peptide, cell-penetrating Penetratin 1 of Antennapedia, used as control peptide, reference compound] |  |  | unchanged | unchanged | did not change | did not change
